In the NIST ThermoML archive (doi:10.1021/je060271a):
Where “and” joins values, the source holds several entries; their conditions need not be identical. Equal entries are not always repeated.

Conditions: Liquid, Vibrating tube method

CCCC(=O)OCC(COC(=O)CCC)(COC(=O)CCC)COC(=O)CCC [pentaerythritol tetrabutyrate]
Conditions | mass density
323.15 K, 33305 kPa | 1046.9 kg/m3
323.15 K, 33386 kPa | 1047 kg/m3
323.15 K, 33430 kPa | 1047.1 kg/m3
323.15 K, 33468 kPa | 1047.2 kg/m3
323.15 K, 33504 kPa | 1047.1 kg/m3
323.15 K, 33549 kPa | 1047.2 kg/m3
323.15 K, 33587 kPa | 1047.2 kg/m3
323.15 K, 33625 kPa | 1047.2 kg/m3
323.15 K, 33664 kPa | 1047.2 kg/m3
323.15 K, 33690 kPa | 1047.2 kg/m3
323.15 K, 33710 kPa | 1047.3 kg/m3
323.15 K, 33750 kPa | 1047.2 kg/m3
323.15 K, 33797 kPa | 1047.3 kg/m3
323.15 K, 33837 kPa | 1047.4 kg/m3
323.15 K, 34013 kPa | 1047.4 kg/m3
323.15 K, 34067 kPa | 1047.4 kg/m3
323.15 K, 34113 kPa | 1047.7 kg/m3
323.15 K, 34161 kPa | 1047.5 kg/m3
323.15 K, 34221 kPa | 1047.5 kg/m3
323.15 K, 34272 kPa | 1047.7 kg/m3
323.15 K, 34276 kPa | 1047.6 kg/m3
323.15 K, 34313 kPa | 1047.6 kg/m3
323.15 K, 34342 kPa | 1047.6 kg/m3
323.15 K, 34379 kPa | 1047.7 kg/m3
323.15 K, 34410 kPa | 1047.7 kg/m3
323.15 K, 34436 kPa | 1047.7 kg/m3
323.15 K, 34450 kPa | 1047.8 kg/m3
323.15 K, 34468 kPa | 1047.9 kg/m3
323.15 K, 34568 kPa | 1047.8 kg/m3
323.15 K, 34570 kPa | 1047.8 kg/m3 and 1047.9 kg/m3
323.15 K, 34571 kPa | 1047.7 kg/m3
323.15 K, 34572 kPa | 1047.7 kg/m3 and 1047.9 kg/m3 and 1047.8 kg/m3
343.13 K, 2755.8 kPa | 1010.1 kg/m3
343.13 K, 2840 kPa | 1010.2 kg/m3
343.13 K, 4339.6 kPa | 1011.5 kg/m3
343.14 K, 104.4 kPa | 1008.1 kg/m3
343.14 K, 105.3 kPa | 1008.1 kg/m3
343.14 K, 105.8 kPa | 1008.1 kg/m3
343.14 K, 106.3 kPa | 1008.1 kg/m3
343.14 K, 107.5 kPa | 1008.2 kg/m3
343.14 K, 108.6 kPa | 1008.2 kg/m3
343.14 K, 110.3 kPa | 1008.1 kg/m3
343.14 K, 112.9 kPa | 1008.2 kg/m3
343.14 K, 116.2 kPa | 1008.1 kg/m3
343.14 K, 121.8 kPa | 1008.1 kg/m3
343.14 K, 129.6 kPa | 1008.1 kg/m3
343.14 K, 141.1 kPa | 1008.3 kg/m3
343.14 K, 155.9 kPa | 1008.2 kg/m3
343.14 K, 167 kPa | 1008.1 kg/m3
343.14 K, 181.6 kPa | 1008.1 kg/m3
343.14 K, 200 kPa | 1008.2 kg/m3
343.14 K, 216 kPa | 1008.1 kg/m3
343.14 K, 226.6 kPa | 1008.2 kg/m3
343.14 K, 238.6 kPa | 1008.3 kg/m3
343.14 K, 252.1 kPa | 1008.2 kg/m3
343.14 K, 267.4 kPa | 1008.2 kg/m3
343.14 K, 284.6 kPa | 1008.3 kg/m3
343.14 K, 304.8 kPa | 1008.3 kg/m3
343.14 K, 328.1 kPa | 1008.2 kg/m3
343.14 K, 354.2 kPa | 1008.2 kg/m3
343.14 K, 383.4 kPa | 1008.3 kg/m3
343.14 K, 404.4 kPa | 1008.4 kg/m3
343.14 K, 419.5 kPa | 1008.4 kg/m3
343.14 K, 436.2 kPa | 1008.5 kg/m3
343.14 K, 541.8 kPa | 1008.4 kg/m3
343.14 K, 568.7 kPa | 1008.5 kg/m3
343.14 K, 598.4 kPa | 1008.6 kg/m3
343.14 K, 626.6 kPa | 1008.5 kg/m3
343.14 K, 662.6 kPa | 1008.4 kg/m3
343.14 K, 698.7 kPa | 1008.5 kg/m3
343.14 K, 717.3 kPa | 1008.6 kg/m3
343.14 K, 736.7 kPa | 1008.6 kg/m3
343.14 K, 752.7 kPa | 1008.6 kg/m3
